# According to the METLIN SMRT retention time set (Domingo-Almenara et al. 2019):
# Test: gradient 5% acetonitrile 3 min, to 50% in 2 min, to 85% in 15 min, held 3 min, 100 µL/min
# Conditions: column: Zorbax Extend-C18 2.1 x 50 mm; eluents: water / acetonitrile, 0.1% formic acid
# How it was run: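 Pure standards were run in mixtures of ~100 molecules by HPLC coupled to a quadrupole time-of-flight mass spectrometer. The column was a Zorbax Extend-C18 (2.1 × 50 mm, 1.8 μm) at 100 μL/min, with water and acetonitrile each containing 0.1% formic acid, in positive and negative ionization mode. Dead and dwell volumes were 40 μL and 900 μL. Retention time was taken from computationally picked adduct peaks, each manually inspected, with data collected over 3 months.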
row,RP-LC retention time [s],Compound
1,987,O=C(NCc1csc(-c2ccccc2)n1)C1CCN(S(=O)(=O)c2ccc(F)c(Cl)c2)CC1
2,582,CC1CCN(CCCNC(=O)C2(O)c3ccccc3NC(=O)N2c2ccc(Cl)cc2)CC1 (stereo unspecified)
3,703,Brc1ccc(-c2ccc(CNCC3CCCO3)o2)cc1 (stereo unspecified)
4,850,CCn1nc(C)c(S(=O)(=O)N2CCN(C(=O)C(C)Oc3cccc(Cl)c3)CC2)c1C (stereo unspecified)
5,544,COc1ccc(CN2CCN(c3cnn4c(C5CC5)nnc4c3)CC2)cc1
6,711,CCS(=O)(=O)c1ccc(CC(=O)Nc2ccc(F)cc2F)cc1
7,846,Cc1csc(-c2ccc(N3CCN(C(=O)c4ccc(F)c(F)c4)CC3)nc2)n1
8,716,Cc1nc(-c2ccncc2)nc2c1CC(=O)N2C1CCCCC1
9,646,CCc1ccccc1NC(=O)N1CC(Cc2nncn2C(C)C)C1
10,617,CCCc1nc2cccnc2n1C1CCN(C(=O)Nc2cccc(OC)c2)C1 (stereo unspecified)
11,640,Cc1ccc(-c2noc(CCN3CCN(C(C)C)CC3)n2)cc1
12,1410,CC(C)(C)c1csc(-c2csc(S(=O)(=O)NCC3CCCCC3)c2)n1
13,870,CCCc1ccc(S(=O)(=O)N2CCC3(CC2)NCCN=C3NCc2cccc(C)c2)cc1
14,844,Cc1nn2c(S(=O)(=O)NC3CCCCCC3)c(C)nc2s1
15,590,CCOC(=O)C1CCCN(CC(O)COc2ccccc2Br)C1 (stereo unspecified)
16,1130,CCCc1noc(-c2ccc(-n3ncc(C(=O)N4CCC(C)CC4)c3C)nc2)n1
17,574,CC(=O)Nc1ccc(CCc2nc3ccc(C(=O)NC(C)C)cc3[nH]2)cc1
18,708,O=C(NCC1CCOCC1)c1ccc(Br)cc1
19,742,O=C(NCc1cccs1)c1nc(-c2ccnc(N3CCCCC3)c2)no1

row,RP-LC retention time [s],Compound
1,654,O=C(Nc1ccc(S(=O)(=O)N2CCCCC2c2cccnc2)cc1)C1CCCCC1 (stereo unspecified)
2,863,CCSc1ccccc1C(=O)NCC1CCN(C(=O)Oc2ccccc2)CC1
3,732,Cc1ccccc1CNC(=O)C1CCCN1S(=O)(=O)c1cc2c(cc1C)NC(=O)CO2 (stereo unspecified)
4,685,CC(=O)Nc1nc(-c2ccc3c(c2)NC(=O)C(C)O3)cs1 (stereo unspecified)
5,831,CC(C)(C)c1nnc(NC(=O)C2CC(=O)N(CCc3c[nH]c4ccc(Cl)cc34)C2)s1 (stereo unspecified)
6,1100,Cc1cccc(CNC(=O)c2nnc(-c3ccc(S(=O)(=O)N4CCC(C)CC4)cc3)o2)c1
7,891,O=C(c1cccc(Cl)c1)N1CCC(Cc2nnc(-c3ccccc3)o2)CC1
8,936,CCOC(=O)C1CCCN(c2nc(-c3ccc(Cl)cc3)nc3ccccc23)C1 (stereo unspecified)
9,622,NS(=O)(=O)c1ccc(CCNC(=O)c2csc(-c3cnccn3)n2)cc1
10,798,O=C(NCCC1CCN(C(=O)Nc2cc(F)cc(F)c2)CC1)c1ccco1
11,1250,O=S(=O)(c1cc(-c2nnc(C3CCC3)o2)co1)N1CCN(c2ccc(F)cc2)CC1
12,640,COc1ccc(NC(=O)CC2=C3CCCCC3NC2=O)cn1 (stereo unspecified)
13,1140,COc1ccccc1C(=O)Nc1cccn2nc(C3CCC3)nc12
14,626,CC(C)CCNC(=O)N(C)Cc1nc2cc(C(=O)NC(C)C)ccc2n1C
15,590,O=C(Nc1ccc2c(c1)OCCO2)N1CCCC(CN2CCOCC2)CC1 (stereo unspecified)
16,891,Cc1c(C(=O)N2CCCCCC2)sc2ncn(CC(=O)N3CC(C)CC(C)C3)c(=O)c12 (stereo unspecified)
17,905,COc1ccc(S(=O)(=O)N2CCCC(c3nnnn3-c3ccccc3)C2)cc1 (stereo unspecified)
18,567,CCn1cnc(S(=O)(=O)N2CCC(C(=O)NCc3ccc(N(C)C)cc3)CC2)c1

# The next lines start with the molecule.
row,Compound,RP-LC retention time [s]
1,CC1=CS/C(=C(/C#N)C(=O)N2CCOCC2)N1c1ccccc1,635
2,Cc1nc(-c2cccc(NC(=O)c3ccc(-n4ccnc4C)nn3)c2)cs1,581
3,COc1ccc(C(=O)NCc2ccc3c(c2)ncn3C(C)C)cn1,597
4,Cc1nnc(C(C)C)n1C1C[C@H]2CC[C@@H](C1)N2CC[C@H](NC(=O)C1CCC(F)(F)CC1)c1ccccc1 (stereo partly specified),666
5,O=C(Cc1ccc(Cl)cc1)Nc1cnc(-c2ccccc2)nc1,1000
6,O=C(Nc1cccc([N+](=O)[O-])c1)c1ccc2ccccc2c1O,1240
7,CC1(C(=O)NCc2ccccc2)Cn2c(ccc2-c2ccco2)C(=O)N1C1CC1 (stereo unspecified),810
8,COCCNC(=O)C1c2cc(OC)c(OC)cc2C(=O)N(C)C1c1ccc(OC)c(OC)c1 (stereo unspecified),642
9,COc1cccc(-n2c(=O)c3sccc3n(Cc3nc(-c4ccc(F)c(Cl)c4)no3)c2=O)c1,1060
10,CCc1ccc(CN2CCC([C@@H]3CNC[C@H]3CO)CC2)cc1,558
11,CCN1C(=O)COc2ccc(-c3nc(NC(=O)c4ccc(Cl)cc4)sc3C)cc21,1130
12,CCOC(=O)c1ccccc1NC(=O)Cn1c(=O)n(-c2cccc(C)c2)c(=O)c2c1cc(C)n2C,966
13,CCOC(=O)c1c(C)[nH]c(C(=O)N2CCC(C(C)C(=O)N3CCOCC3)CC2)c1C (stereo unspecified),681
14,COc1ccccc1NC(=O)N1CCC2(CC1)NC(=O)c1cc(Cl)ccc1N2C,806
15,Cc1ccn2cc(-c3ccc(NC(=O)Nc4cccc(Cl)c4)cc3)nc2n1,692
16,O=C(Cn1ccc2sccc2c1=O)N1CCN(c2ccccc2)CC1,724
17,Cc1cccc(-c2noc(-c3nc(C)no3)n2)c1,1050
18,Fc1cccc(-c2nn3c(-c4ccc5ccccc5n4)nnc3s2)c1,987
19,COc1ccc(/C=C2\COc3ccc(C)cc3C2=O)cc1O,1050
20,Cc1ccc(CNC(=O)c2c(C)sc3ccn(Cc4ccc(F)cc4)c(=O)c23)o1,980
21,CCOC(=O)c1ccc(N2C=C(C(=O)OC)S(=O)(=O)c3ccccc32)cc1,893
22,COc1ccc2[nH]cc(CCNC(=O)Cn3nc(C)c4c(C)onc4c3=O)c2c1,698
23,Cc1nc2ncc(-c3ccnc(N4CCN(Cc5ccccc5)CC4)n3)c(C)n2n1,604
24,Cc1ccc(N2C(=O)C3N=NN(Cc4nc(-c5ccc(OC(C)C)cc5)no4)C3C2=O)cc1F (stereo unspecified),1140
25,CCC(C)Nc1nc(N(C)C)nc(-n2cnc(SC)n2)n1 (stereo unspecified),942
26,O/N=C(/c1ccccc1)c1ccc2c3c(cccc13)CC2,1140
27,Cn1cccc1C(=O)C(=O)Nc1ccc(F)cc1Cl,1070

row,Compound,RP-LC retention time [s]
1,O=C(NCCc1c[nH]c2ccccc12)C(=O)c1cn(CC(=O)N2CCOCC2)c2ccccc12,832
2,CN(C)C(=O)CN1C(=O)CCSc2ccccc21,665
3,Fc1ccccc1N1CCN(c2ncccc2-c2nc(-c3ccccc3)no2)CC1,1390
4,Cc1ccccc1CNC(=O)C1(C)CCCN(C(=O)NCCc2ccccc2)C1 (stereo unspecified),897
5,COc1ccccc1OCC(=O)Nc1cc(-c2ccccn2)no1,802
6,COc1ccc(-c2c(C(=O)O)nnn2-c2ccc3c(c2)OCO3)cc1,745
7,Cc1oc2ccn(Cc3ccc(F)cc3)c(=O)c2c1C(=O)NCC1CCCO1 (stereo unspecified),870
8,Cc1ccc(OCc2ccc(-c3nc(C#N)c(NCCCN(C)C)o3)o2)cc1,717
9,Cc1ccccc1NC(=O)N1CCC(n2cnc3c(Cl)cccc3c2=O)CC1,791
10,O=C(NCC1(CO)CC1)c1ccccc1F,599
11,O=C(Cn1ccc2sccc2c1=O)Nc1ccc(F)c(F)c1,752
12,O=C(CN1CC(c2nc(Cc3ccccc3)no2)C1)NCc1ccc(F)cc1,595
13,Cc1ccc(C)c(NC(=O)Cc2nnc(-c3cnccn3)o2)c1,736
14,O=C(Nc1cccc(F)c1)C1(CCO)CCN(c2ncccn2)C1 (stereo unspecified),639
15,CCOc1ccc2nc(C(=O)NCc3ccccc3Br)cn2n1,947
16,COCC(=O)N(CC(=O)N1CCc2sccc2C1COc1ccc(Cl)cc1)C(C)C (stereo unspecified),909
17,COc1ccc2c(c1)C1(CCN(C(=O)Cc3ccc(C)cc3)C1)C(=O)N2C (stereo unspecified),854
18,Fc1cccc(Cn2cc(-c3noc(-c4ccccc4)n3)nn2)c1,986
19,CNC(=O)c1cnc(-c2ccc(Cl)cc2)n(CC(=O)N2CCc3ccccc32)c1=O,997
20,CCN(CCCNC(=O)Cn1ccc2c(=O)n(C)c(=O)n(C)c21)c1ccccc1,578
21,COc1ccc2nc(NC(=O)Nc3ccccc3)sc2c1,966
22,CCOc1ccc(NC(=O)Cn2c(=O)n(-c3ccc(F)cc3)c(=O)c3c2cc(C)n3C)cc1,866
23,Cc1ccccc1NC(=O)CN1C(=O)CC(C)S(=O)(=O)c2ccccc21 (stereo unspecified),760
24,Cc1ccc(C(=O)NCCn2c(=O)n(Cc3ccc(F)cc3)c3cccnc32)s1,781
25,COc1ccc(NC(=O)c2c[nH]c3ncccc23)c(C)c1,657
26,Cc1ccc(C2c3[nH]c4ccccc4c3CCN2C(=O)C2CC2)cc1 (stereo unspecified),1110
27,Cc1cccc(C)c1-n1ccn(Cc2nc(-c3cccc(F)c3)no2)c(=O)c1=O,901
